Here are results for 1 compound from patent US6294547A, “Naphthyridine deratives or salts thereof” (Nippon Kayaku Kabushiki Kaisha, priority 1997, dated 2001).

Data set [1] deals with T1, NK-1 receptors (Cavia porcellus, UniProt P30547).
T1 construct: the ileums were isolated; from tissue; host or cells: isolated ileum of male Hartley guinea pigs
The data set can be described thus: Antagonism for NK-1 receptor (methylsubstance P induced contraction of isolated ileum). It is filed as cell-based, Hartley strain male guinea pigs. Conditions: guinea pig ileum; methylsubstance P 1×10^-9 M; 35 min incubation; read-out: IC50 of a drug on methylsubstance P induced contraction. As to the method:
Hartley strain male guinea pigs were killed by a blow on the head and blood-letting, and the ileums were isolated. A specimen of about 3 cm in length was prepared and then suspended at a tension of 0.5 gw in a 15 magunus bath with an internal volume of 15 ml containing Krebs-Henseleit solution of 37° C. while introducing a mixed gas of 95% O2 +5% CO2 into the bath. As the Krebs-Henseleit solution, that containing atropine (1×10^-6 M) and indomethacin (5×10^-6 M) was used for preventing the participation of intrinsic acetylcholine and prostaglandins. Methylsubstance P (1×10^-9 M), a specific stimulating agent for NK-1 receptors were repeatedly allowed to act on the specimen at intervals of 40 minutes. After the percentage of contraction due to methylsubstance P became constant, a drug was added to the solution to each of various concentrations, followed by incubation for 35 minutes, and methyl-substance P was allowed to act on the specimen again. The rate of inhibition by the drug was determined relative to the percentage of contraction immediately before the addition of the drug, and the 50% inhibitory concentration (IC50) of the drug was determined by means of a regression line.

Data set [2] has as its target T2, NK-3 receptors (Cavia porcellus, UniProt P30098).
T2 construct: the ileums were isolated; from tissue; host or cells: isolated ileum of male Hartley guinea pigs
T2 sequence (P30098 1-440): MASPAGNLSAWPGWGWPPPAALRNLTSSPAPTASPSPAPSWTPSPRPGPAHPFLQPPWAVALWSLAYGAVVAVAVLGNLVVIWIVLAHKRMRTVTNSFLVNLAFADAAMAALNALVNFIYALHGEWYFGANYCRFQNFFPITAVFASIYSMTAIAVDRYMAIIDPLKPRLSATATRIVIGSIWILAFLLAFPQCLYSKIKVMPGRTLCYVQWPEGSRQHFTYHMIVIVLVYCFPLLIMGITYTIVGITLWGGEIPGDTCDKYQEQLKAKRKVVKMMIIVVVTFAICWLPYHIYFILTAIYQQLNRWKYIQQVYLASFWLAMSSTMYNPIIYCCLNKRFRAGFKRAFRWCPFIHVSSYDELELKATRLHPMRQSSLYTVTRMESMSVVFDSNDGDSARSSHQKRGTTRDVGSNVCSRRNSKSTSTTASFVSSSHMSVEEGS
The data set can be described thus: Antagonism for NK-3 receptors (senktide induced contraction of isolated ileum). The data set is classed as cell-based, Hartley strain male guinea pigs. The settings on record: guinea pig ileum; senctide 1×10^-9 M; 35 min incubation; read-out: IC50 of a drug on senctide induced contraction. The method, then:
Hartley strain male guinea pigs were killed by a blow on the head and blood-letting, and the ileums were isolated. A specimen of about 3 cm in length was prepared and then suspended at a tension of 0.5 gw in a magunus bath with an internal volume of 15 ml containing Krebs-Henseleit solution of 37° C. while introducing a mixed gas of 95% O2 and 5% CO2 into the bath. As the Krebs-Henseleit solution, that containing atropine (1×10^-6 M) and indomethacin (5×10^-6 M) was used for preventing the participation of intrinsic acetylcholine and prostaglandins. Senctide (1×10^-9 M), a specific stimulating agent for NK-3 receptors was repeatedly allowed to act on the specimen at intervals of 50 minutes. After the percentage of contraction due to senctide became constant, a drug was added to the solution to each of various concentrations, followed by incubation for 35 minutes, and senctide was allowed to act on the specimen again. The rate of inhibition by the drug was determined relative to the percentage of contraction immediately before the addition of the drug, and the 50% inhibitory concentration (IC50) was determined by means of a regression line.

For data set [3], the system named is NK-2 receptors. The data set can be described thus: Inhibitory effect on bronchoconstriction caused by stimulation of NK-2 receptors (Nle10 neurokinin A (4-10)). The data set is classed as in vivo, Hartley strain male guinea pigs. As to the method:
There were used non-treated Hartley strain male guinea pigs and Hartley strain male guinea pigs received to active sensitization by subcutaneous administration of 30 mg/kg of ovalbumin 14 to 21 days before. The guinea pigs were anesthetized with pentobarbital and a tube was inserted into the trachea of each guinea pig. The guinea pigs were subjected to positive pressure respiration by means of an artificial respiratory apparatus at 10 ml/kg and 60 times/minute. The pressure in the edge of the tube in the trachea was measured as an indication of bronchoconstriction. Spontaneous respiration was inhibited by administering succinylcholine. The non-treated guinea pigs were repeatedly and intravenously injected with 2 nmol/kg of Nle10 neurokinin A (4-10), a specific stimulating agent for NK-2 receptors at intervals of 10 minutes. After the bronchoconstriction thus caused became stable, each drug was administered intravenously, orally or in duodenum. Nle10 neurokinin A (4-10) was intravenously injected again 3 minutes after the intravenous administration or 50 minutes after the oral administration or the administration in duodenum. The rate of inhibition by the drug was determined relative to the bronchoconstriction before the drug administration.

In data set [4] the test system is bronchoconstriction caused by inhalation of an antigen. The data set can be described thus: Inhibitory effect on bronchoconstriction caused by inhalation of antigen (ovalbumin). The data set is classed as in vivo, Hartley strain male guinea pigs (active sensitization). The settings on record: 10 μmol/kg oral, 50 min before antigen inhalation; measured 8 min after. As to the method:
There were used non-treated Hartley strain male guinea pigs and Hartley strain male guinea pigs received to active sensitization by subcutaneous administration of 30 mg/kg of ovalbumin 14 to 21 days before. The guinea pigs were anesthetized with pentobarbital and a tube was inserted into the trachea of each guinea pig. The guinea pigs were subjected to positive pressure respiration by means of an artificial respiratory apparatus at 10 ml/kg and 60 times/minute. The pressure in the edge of the tube in the trachea was measured as an indication of bronchoconstriction. Spontaneous respiration was inhibited by administering succinylcholine. […] The rate of inhibition by the drug was determined relative to the bronchoconstriction before the drug administration.
To the guinea pigs received to active sensitization, 4.6 μmol/kg of phosphoramidon was intravenously administered, and 15 minutes after the administration, these guinea pigs were allowed to inhale for 2 minutes an aerosol of an antigen ovalbumin solution (2 mg/ml) produced with an ultrasonic nebulizer, to cause bronchoconstriction. […] The inhibition rate of the drug-treated group was determined relative to the bronchoconstriction of the solvent-treated group measured 8 minutes after the antigen inhalation.

The subject of data set [5] is Mouse. The data set can be described thus: Toxic effect on mouse, intravenous. It is filed as in vivo. From the text:
The toxicity of the compounds of the present invention was investigated.

Where a name gives a salt, the structure may show the parent alone.

T1 sequence (P30547 whole entry): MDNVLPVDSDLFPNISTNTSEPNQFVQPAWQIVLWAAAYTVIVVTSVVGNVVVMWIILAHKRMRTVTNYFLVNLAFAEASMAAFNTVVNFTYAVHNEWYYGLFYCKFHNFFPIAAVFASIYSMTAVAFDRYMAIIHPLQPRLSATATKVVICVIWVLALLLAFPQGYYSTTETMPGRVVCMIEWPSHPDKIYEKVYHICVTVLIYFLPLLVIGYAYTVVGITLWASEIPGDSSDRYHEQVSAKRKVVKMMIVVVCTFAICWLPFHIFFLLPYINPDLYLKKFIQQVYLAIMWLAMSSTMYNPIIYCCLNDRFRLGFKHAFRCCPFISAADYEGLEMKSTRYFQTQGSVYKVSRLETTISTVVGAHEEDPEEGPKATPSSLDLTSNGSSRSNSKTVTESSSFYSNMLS

For `CN(CC(CCN1CCc2nc3c(cc2C1)CCCC3)c1ccc(Cl)c(Cl)c1)C(=O)c1ccccc1` (single isomer, unassigned) [Example 25, 2-[(-)-4-(N-benzoyl-N-methyl)amino-3-(3,4-dichlorophenylbutyll-1,2,3,4,6,7,8,9-octahydro-benzo[b][1,6]naphthyridine fumarate], the figures for the IC50 in data set [1] and in data set [2] were 470 nM and 180 nM, respectively. Also, the “Inhibition (rate), stimulation of NK-2 receptors” value came out at 94.2% in data set [3] (1 μmol/kg intravenous, 3 min after administration) and 67.2% in data set [3] (8 μmol/kg oral, 50 min after administration). Moreover, the “Inhibition (rate), inhalation of antigen” value in data set [4] came to 54.1%. In addition, the Toxicity entry in data set [5] (22 μmol/kg intravenous) and in data set [5] (65 μmol/kg intravenous) was “None” each time.
